From the supplement of paper PMC4862054

Assays:
Conditions in all cases: incubation time: 72 h
CAL-148 = assay: drug sensitivity score (DSS), CellTiter-Glo (DSS (AUC-based score)); higher = stronger drug effect (viability inhibition or cytotoxicity); extreme values may be limits of the assay
Summary of the method: (§1)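 Using 20 µl of cell suspension per well, breast cancer cell lines were seeded into 384-well plates pre-loaded with compound at 5 concentrations in 10-fold steps across a compound-specific 10,000-fold range. Incubation lasted 72 h, after which CellTox Green fluorescence at 485/520 nm and then CellTiter-Glo luminescence, following 10 min at room temperature, were recorded. Each plate was normalised to 0.1 % DMSO and a positive kill control before the drug sensitivity score was derived from the area under the fitted dose-response curve.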

CAL-85-1 [1] = assay: as above
Summary of the method: as §1

MDA-MB-231 = assay: as above
Summary of the method: as §1

DU-4475 = assay: as above
Summary of the method: as §1

CAL-120 = assay: as above
Summary of the method: as §1

HCC1599 [2] = assay: as above
Summary of the method: as §1

MDA-MB-436 [3] = assay: as above
Summary of the method: as §1

HCC1937 [4] = assay: as above
Summary of the method: as §1

SK-BR-3 [5] = assay: as above
Summary of the method: as §1

Hs578T = assay: as above
Summary of the method: as §1

MFM-223 = assay: as above
Summary of the method: as §1

MDA-MB-453 = assay: as above
Summary of the method: as §1

BT-549 = assay: as above
Summary of the method: as §1

BT-474 [6] = assay: as above
Summary of the method: as §1

HDQ-P1 [7] = assay: as above
Summary of the method: as §1

CAL-51 [8] = assay: as above
Summary of the method: as §1

CAL-85-1 [9] = assay: normalised viability (% of control), CellTiter-Blue; higher = more viable cells (about 100 = DMSO control)
Summary of the method: (§2)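 After 72 h on compound-loaded 384-well plates, breast cancer cell lines received 2.5 µl CellTiter-Blue reagent for 2 h at 37 °C. Fluorescence at 560/590 nm was scaled per plate so that vehicle was 100 and a positive kill control was 0. The value stands for normalised viability at a single listed concentration of the series.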

HCC1599 [10] = assay: as above
Summary of the method: as §2

MDA-MB-436 [11] = assay: as above
Summary of the method: as §2

HCC1937 [12] = assay: as above
Summary of the method: as §2

SK-BR-3 [13] = assay: as above
Summary of the method: as §2

HCC1143 = assay: as above
Summary of the method: as §2

BT-474 [14] = assay: as above
Summary of the method: as §2

HDQ-P1 [15] = assay: as above
Summary of the method: as §2

CAL-51 [16] = assay: as above
Summary of the method: as §2

CC(C)(C)NC(=O)[C@H]1CC[C@H]2[C@@H]3CC[C@H]4NC(=O)C=C[C@]4(C)[C@H]3CC[C@]12C [Finasteride]
Conditions | drug sensitivity score
BT-474 [6] | 0
BT-549 | 0
CAL-51 [8] | 0
CAL-85-1 [1] | 0
CAL-120 | 0
CAL-148 | 0
DU-4475 | 0
HCC1599 [2] | 0
HCC1937 [4] | 0
HDQ-P1 [7] | 0
Hs578T | 0
MDA-MB-231 | 0
MDA-MB-436 [3] | 0
MDA-MB-453 | 0
MFM-223 | 0
SK-BR-3 [5] | 0

normalised viability [%]
Conditions | BT-474 [14] | CAL-51 [16] | CAL-85-1 [9] | HCC1143 | HCC1599 [10] | HCC1937 [12] | HDQ-P1 [15] | MDA-MB-436 [11] | SK-BR-3 [13]
3 nM | – | 112 | 100 | – | – | – | 121 | – | –
10 nM | 125 | – | – | 102 | 97.1 | 107 | – | 91 | 110
30 nM | – | 108 | 91.7 | – | – | – | 116 | – | –
100 nM | – | 103 | 100 | – | – | – | 130 | – | –
1000 nM | 111 | – | – | 96.8 | 114 | 94.7 | – | 97.8 | 107
10000 nM | 125 | – | – | 106 | 83.4 | 106 | – | 96.3 | 102

CC(C)C[C@H](NC(=O)[C@@H](COC(C)(C)C)NC(=O)[C@H](Cc1ccc(O)cc1)NC(=O)[C@H](CO)NC(=O)[C@H](Cc1c[nH]c2ccccc12)NC(=O)[C@H](Cc1cnc[nH]1)NC(=O)[C@@H]1CCC(=O)N1)C(=O)N[C@@H](CCCNC(=N)N)C(=O)N1CCC[C@H]1C(=O)NNC(N)=O [Goserelin]
Conditions | drug sensitivity score
BT-474 [6] | 0
BT-549 | 0
CAL-51 [8] | 0
CAL-85-1 [1] | 0
CAL-120 | 0
CAL-148 | 0
DU-4475 | 0
HCC1599 [2] | 0
HCC1937 [4] | 0
HDQ-P1 [7] | 0
Hs578T | 0
MDA-MB-231 | 0
MDA-MB-436 [3] | 0
MDA-MB-453 | 0
MFM-223 | 0
SK-BR-3 [5] | 0

normalised viability [%]
Conditions | BT-474 [14] | CAL-51 [16] | CAL-85-1 [9] | HCC1143 | HCC1599 [10] | HCC1937 [12] | HDQ-P1 [15] | MDA-MB-436 [11] | SK-BR-3 [13]
3 nM | – | 107 | 102 | – | – | – | 104 | – | –
10 nM | 115 | – | – | 82.8 | 107 | 104 | – | 95.6 | 98.8
30 nM | – | 104 | 93.9 | – | – | – | 109 | – | –
100 nM | – | 105 | 102 | – | – | – | 103 | – | –
1000 nM | 111 | – | – | 95 | 83.8 | 85.1 | – | 97.3 | 106
10000 nM | 131 | – | – | 89 | 90.2 | 97.4 | – | 94 | 94.7

CCNC(=O)c1noc(-c2cc(C(C)C)c(O)cc2O)c1-c1ccc(CN2CCOCC2)cc1 [NVP-AUY922]
Conditions | drug sensitivity score
BT-474 [6] | 13
BT-549 | 14.1
CAL-51 [8] | 15.7
CAL-85-1 [1] | 14.1
CAL-120 | 9.4
CAL-148 | 12.5
DU-4475 | 17.8
HCC1599 [2] | 3.99
HCC1937 [4] | 13.8
HDQ-P1 [7] | 17.4
Hs578T | 11
MDA-MB-231 | 13.3
MDA-MB-436 [3] | 14.8
MDA-MB-453 | 12.4
MFM-223 | 14.9
SK-BR-3 [5] | 16.7

normalised viability [%]
Conditions | BT-474 [14] | CAL-51 [16] | CAL-85-1 [9] | HCC1143 | HCC1599 [10] | HCC1937 [12] | HDQ-P1 [15] | MDA-MB-436 [11] | SK-BR-3 [13]
0.3 nM | – | 107 | 101 | – | – | – | 94 | – | –
1 nM | 102 | – | – | 119 | 101 | 58.5 | – | 111 | 106
3 nM | – | 106 | 96.8 | – | – | – | 97.8 | – | –
10 nM | – | 104 | 102 | – | – | – | 64.9 | – | –
100 nM | 27.7 | – | – | 45 | 43.4 | 24.7 | – | 11.2 | 16.2
1000 nM | 22.3 | – | – | 47.7 | 41.2 | 30.7 | – | 19.9 | 16.8

CN(Cc1cnc2nc(N)nc(N)c2n1)c1ccc(C(=O)N[C@@H](CCC(=O)O)C(=O)O)cc1 [Methotrexate]
Conditions | drug sensitivity score
BT-474 [6] | 7.54
BT-549 | 0
CAL-51 [8] | 16.2
CAL-85-1 [1] | 9.24
CAL-120 | 17.3
CAL-148 | 0
DU-4475 | 0
HCC1599 [2] | 1.47
HCC1937 [4] | 30.2
HDQ-P1 [7] | 23.1
Hs578T | 2.72
MDA-MB-231 | 7.21
MDA-MB-436 [3] | 3.7
MDA-MB-453 | 0
MFM-223 | 0
SK-BR-3 [5] | 0

normalised viability [%]
Conditions | BT-474 [14] | CAL-51 [16] | CAL-85-1 [9] | HCC1143 | HCC1599 [10] | HCC1937 [12] | HDQ-P1 [15] | MDA-MB-436 [11] | SK-BR-3 [13]
3 nM | – | 108 | 98.5 | – | – | – | 108 | – | –
10 nM | 115 | – | – | 87.8 | 102 | 86.5 | – | 111 | 95.9
30 nM | – | 101 | 84 | – | – | – | 95.5 | – | –
100 nM | – | 62.6 | 78 | – | – | – | 96 | – | –
1000 nM | 118 | – | – | 68.9 | 75.6 | 72.1 | – | 64.4 | 52
10000 nM | 128 | – | – | 65.4 | 103 | 76.1 | – | 93.6 | 52.8
